Columns and labels:
RAW 264.7 cells = test: NAD+ induction in RAW 264.7 cells; format: cell-based; settings: RAW 264.7 mouse macrophages, 2 hours, NARH and NR 0.5 mM
Description: (§1) RAW 264.7 cells were treated with dihydronicotinic acid riboside (NARH) and nicotinamide riboside (NR), alone or in combination for 2 hours. NARH and NR were used at the concentration of 0.5 mM. After treatment, cells were scraped and collected for NAD+ and protein content measurements. NAD+ was extracted and quantified using an EnzyChrom NAD/NADH Assay Kit (BioAssay Systems; #E2ND-100) according to the manufacturer's instructions. Proteins were quantified with BCA Protein Assay Kit (Pierce™; #23225). All results are expressed as mean+/−SD of n=2-4. NARH vs control P=0.8130; NR vs control P=0.0788; NRH+NR vs control P=0.0087.
as §1, with “#23225).” for “#23225). All results are expressed as mean+/−SD of n=2-4. NARH vs control P=0.8130; NR vs control P=0.0788; NRH+NR vs control P=0.0087.”

MEF cells = test: NAD+ induction in MEF cells; format: cell-based; settings: MEF mouse fibroblast, 2 hours, NARH and NR 0.5 mM
Description: as §1, with “MEF” for “RAW 264.7”, “trypsinized” for “scraped”, “n=2.” for “n=2-4.”, “P=0.7581;” for “P=0.8130;”, “P=0.5337;” for “P=0.0788;”, “P=0.0002.” for “P=0.0087.”
as §1, with “MEF” for “RAW 264.7”, “trypsinized” for “scraped”, “#23225).” for “#23225). All results are expressed as mean+/−SD of n=2-4. NARH vs control P=0.8130; NR vs control P=0.0788; NRH+NR vs control P=0.0087.”

| Compound | NAD+ induction (RAW 264.7 cells) | NAD+ induction (MEF cells) |
| --- | --- | --- |
| O=C(O)C1=CN([C@@H]2O[C@H](CO)[C@@H](O)[C@@H]2O)C=CC1 [NARH, dihydronicotinic acid riboside] | not NARH or NR alone, induces NAD+ | not NARH or NR alone, induces NAD+ |
| NC(=O)c1ccc[n+]([C@@H]2O[C@H](CO)[C@@H](O)[C@H]2O)c1 [NR, nicotinamide riboside] | not NARH or NR alone, induces NAD+ | not NARH or NR alone, induces NAD+ |

Reference: patent publication US20240245714A1, “COMPOSITION AND METHODS USING COMBINATION OF NARH AND NR TO PRODUCE INTRACELLULAR NICOTINAMIDE ADENINE DINUCLEOTIDE (NAD+)” (SOCIETE DES PRODUITS NESTLE S.A., priority 2021, published 2024)
